Target: T1, BTK (Homo sapiens, UniProt Q06187)
T1 construct: The GM01501.3 cell line endogenously expresses BTK with a HiBiT fusion tag via CRISPR knock-in at its C-terminal region; endogenous in cells; host or cells: GM01501.3 (GM01501 cells engineered by CRISPR knock-in of HiBiT at the BTK locus)
Assay: BTK degradation assay using the HiBiT Method (Nano-Glo HiBiT Lytic Assay, GM01501.3 cells)
Assay type: cell-based
Settings: HiBiT Degradation on GM01501.3 BTK @ 6 hours
How it was run: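 CRISPR knock-in GM01501.3 cells expressing endogenous BTK with C-terminal HiBiT tag, treated 6 h at 37 °C with compounds, 11-point half-log titration from 10 μM top, duplicates. Remaining BTK quantified by Nano-Glo HiBiT lytic luminescence versus DMSO controls; DC50 reported.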

T1 sequence (Q06187 whole entry, the tested form may be a part): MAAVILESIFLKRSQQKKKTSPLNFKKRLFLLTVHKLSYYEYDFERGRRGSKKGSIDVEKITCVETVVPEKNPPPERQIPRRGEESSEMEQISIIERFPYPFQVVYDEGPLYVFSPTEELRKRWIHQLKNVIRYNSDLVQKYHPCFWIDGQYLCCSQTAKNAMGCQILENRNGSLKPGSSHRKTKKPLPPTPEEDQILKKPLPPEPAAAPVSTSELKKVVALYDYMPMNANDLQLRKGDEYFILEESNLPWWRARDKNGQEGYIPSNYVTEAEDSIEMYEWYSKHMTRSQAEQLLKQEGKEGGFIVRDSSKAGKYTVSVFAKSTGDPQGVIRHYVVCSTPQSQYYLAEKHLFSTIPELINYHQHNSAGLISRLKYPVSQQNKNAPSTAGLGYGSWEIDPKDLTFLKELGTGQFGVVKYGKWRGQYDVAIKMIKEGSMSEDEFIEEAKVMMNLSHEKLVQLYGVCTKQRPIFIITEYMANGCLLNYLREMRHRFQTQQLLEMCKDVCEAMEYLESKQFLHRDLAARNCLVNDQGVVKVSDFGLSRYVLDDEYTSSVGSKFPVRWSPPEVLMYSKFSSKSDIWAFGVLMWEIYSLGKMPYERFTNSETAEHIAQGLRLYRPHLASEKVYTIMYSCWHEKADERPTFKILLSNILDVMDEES

Q: Which DC50 does the source give for CC(C)(C)c1nc(C(=O)NCc2ccc(-c3ncnn4cc(CCCCN5CCC(c6ccc(C7(C)CCC(=O)NC7=O)cc6)CC5)cc34)cc2F)no1 (centres unmarked) [Example 140, 5-tert-butyl-N-[[2-fluoro-4-[6-[4-[4-[4-(3-methyl-2,6-dioxo-3-piperidyl)phenyl]-1-piperidyl]butyl]pyrrolo[2,1-f][1,2,4]triazin-4-yl]phenyl]methyl]-1,2,4-oxadiazole-3-carboxamide] here?
A: Its DC50 is under 0.1 µM.

Q: How did the DC50 turn out when Cc1cc(-c2ncnn3cc(-c4ccc(OCCN5CCC(c6ccc(CN7CCC(=O)NC7=O)cc6)CC5)cc4)cc23)ccc1CNC(=O)c1noc(C(C)(C)C)n1 [Example 106, 5-tert-butyl-N-[[4-[6-[4-[2-[4-[4-[(2,4-dioxohexahydropyrimidin-1-yl)methyl]phenyl]-1-piperidyl]ethoxy]phenyl]pyrrolo[2,1-f][1,2,4]triazin-4-yl]-2-methyl-phenyl]methyl]-1,2,4-oxadiazole-3-carboxamide] was run?
A: The DC50 was under 0.1 µM.

Q: For Cc1cc(-c2ncnn3cc(-c4ccc(CN5CCC(c6ccc(C7CCC(=O)NC7=O)cc6F)CC5)cc4)cc23)ccc1CNC(=O)c1noc(C(C)(C)C)n1 (centres unmarked) [Example 9, 5-tert-butyl-N-[[4-[6-[4-[[4-[4-(2,6-dioxo-3-piperidyl)-2-fluoro-phenyl]-1-piperidyl]methyl]phenyl]pyrrolo[2,1-f][1,2,4]triazin-4-yl]-2-methyl-phenyl]methyl]-1,2,4-oxadiazole-3-carboxamide], which DC50 is on record?
A: Its DC50 is under 0.1 µM.

Q: With Cc1cc(-c2ccnc3cc(CCCCN4CCC(c5ccc6c(N7CCC(=O)NC7=O)nn(C)c6c5)CC4)nn23)ccc1CNC(=O)c1noc(C(C)(C)C)n1 [Example 300, 5-(tert-butyl)-N-(4-(2-(4-(4-(3-(2,4-dioxotetrahydropyrimidin-1(2H)-yl)-1-methyl-1H-indazol-6-yl)piperidin-1-yl)butyl)pyrazolo[1,5-a]pyrimidin-7-yl)-2-methylbenzyl)-1,2,4-oxadiazole-3-carboxamide] as the compound, how does the DC50 read?
A: Its DC50 is under 0.1 µM.

Q: CC(C)(C)c1nc(C(=O)NCc2ccc(-c3ncnn4cc(-c5ccc(CN6CCN(Cc7ccc(OC8CCC(=O)NC8=O)cc7)CC6)cn5)cc34)cc2F)no1 (centres unmarked) [Example 234, 5-(tert-butyl)-N-(4-(6-(5-((4-(4-((2,6-dioxopiperidin-3-yl)oxy)benzyl)piperazin-1-yl)methyl)pyridin-2-yl)pyrrolo[2,1-f][1,2,4]triazin-4-yl)-2-fluorobenzyl)-1,2,4-oxadiazole-3-carboxamide] was tested. Which DC50 did it give?
A: The DC50 was under 0.1 µM.

Q: Which DC50 does the source give for Cc1cc(-c2ncnn3cc(-c4ccc(CN5CCC(c6cnc(NC7CCC(=O)NC7=O)cn6)CC5)cc4)cc23)ccc1CNC(=O)c1noc(C(C)(C)C)n1 (centres unmarked) [Example 12, 5-tert-butyl-N-[[4-[6-[4-[[4-[5-[(2,6-dioxo-3-piperidyl)amino]pyrazin-2-yl]-1-piperidyl]methyl]phenyl]pyrrolo[2,1-f][1,2,4]triazin-4-yl]-2-methyl-phenyl]methyl]-1,2,4-oxadiazole-3-carboxamide] here?
A: The DC50 was under 0.1 µM.

Q: For Cc1cc(-c2ncnn3cc(-c4cccc5c(CN6CCC(c7ccc(C8CCC(=O)NC8=O)cc7)CC6)n(C)nc45)cc23)ccc1CNC(=O)c1noc(C(C)(C)C)n1 (centres unmarked) [Example 212, 5-(tert-butyl)-N-(4-(6-(3-((4-(4-(2,6-dioxopiperidin-3-yl)phenyl)piperidin-1-yl)methyl)-2-methyl-2H-indazol-7-yl)pyrrolo[2,1-f][1,2,4]triazin-4-yl)-2-methylbenzyl)-1,2,4-oxadiazole-3-carboxamide], which DC50 is on record?
A: The DC50 was 0.1 to 0.5 µM.

Q: With Cc1cc(-c2ncnn3cc(CCCCN4CCC(c5ccc6c(N7CCC(=O)NC7=O)nn(C)c6c5)CC4)cc23)ccc1CNC(=O)c1noc(C2(C(F)(F)F)CC2)n1 [Example 282, N-(4-(6-(4-(4-(3-(2,4-dioxotetrahydropyrimidin-1(2H)-yl)-1-methyl-1H-indazol-6-yl)piperidin-1-yl)butyl)pyrrolo[2,1-f][1,2,4]triazin-4-yl)-2-methylbenzyl)-5-(1-(trifluoromethyl)cyclopropyl)-1,2,4-oxadiazole-3-carboxamide] as the compound, how does the DC50 read?
A: The DC50 was under 0.1 µM.

Q: With Cc1cc(-c2ncnn3cc(-c4ccc5c(c4)CCN(CCc4ccc(NC6CCC(=O)NC6=O)cc4)C5)cc23)ccc1CNC(=O)c1noc(C(C)(C)C)n1 (centres unmarked) [Example 56, 5-tert-butyl-N-[[4-[6-[2-[2-[4-[(2,6-dioxo-3-piperidyl)amino]phenyl]ethyl]-3,4-dihydro-1H-isoquinolin-6-yl]pyrrolo[2,1-f][1,2,4]triazin-4-yl]-2-methyl-phenyl]methyl]-1,2,4-oxadiazole-3-carboxamide] as the compound, how does the DC50 read?
A: The DC50 was under 0.1 µM.

Q: For CC(C)(C)c1nc(C(=O)NCc2ccc(-c3ncnn4cc(-c5ccc(OCCN6CCC(c7ccc(C8(C)CCC(=O)NC8=O)cc7)CC6)cc5)cc34)cc2F)no1 (centres unmarked) [Example 111, 5-tert-butyl-N-[[2-fluoro-4-[6-[4-[2-[4-[4-(3-methyl-2,6-dioxo-3-piperidyl)phenyl]-1-piperidyl]ethoxy]phenyl]pyrrolo[2,1-f][1,2,4]triazin-4-yl]phenyl]methyl]-1,2,4-oxadiazole-3-carboxamide], which DC50 is on record?
A: The DC50 was under 0.1 µM.

Q: Which DC50 does the source give for Cc1cc(-c2ncnn3cc(CCN4CC[C@H](c5ccc6c(N7CCC(=O)NC7=O)nn(C)c6c5)C4)cc23)ccc1CNC(=O)c1noc(C(C)(C)C)n1 (single isomer, unassigned) [Example 265] here?
A: Its DC50 is under 0.1 µM.

Q: For Cc1cc(-c2ncnn3cc(-c4ccc(CN5CCC(c6ccc(NC7CCC(=O)NC7=O)cc6)CC5)cc4)cc23)ccc1CNC(=O)c1ccc(C(C)C)nn1 (centres unmarked) [Example 92, N-[[4-[6-[4-[[4-[4-[(2,6-dioxo-3-piperidyl)amino]phenyl]-1-piperidyl]methyl]phenyl]pyrrolo[2,1-f][1,2,4]triazin-4-yl]-2-methyl-phenyl]methyl]-6-isopropyl-pyridazine-3-carboxamide], which DC50 is on record?
A: The DC50 was under 0.1 µM.

Q: For Cc1cc(-c2ncnn3cc(-c4ccc(CN5CCC(c6ccc7c(N8CCC(=O)NC8=O)nn(C)c7c6)CC5)cc4)cc23)ccc1CNC(=O)c1noc(C(C)(C)C)n1 [Example 28, 5-tert-butyl-N-[[4-[6-[4-[[4-[3-(2,4-dioxohexahydropyrimidin-1-yl)-1-methyl-indazol-6-yl]-1-piperidyl]methyl]phenyl]pyrrolo[2,1-f][1,2,4]triazin-4-yl]-2-methyl-phenyl]methyl]-1,2,4-oxadiazole-3-carboxamide], which DC50 is on record?
A: Its DC50 is under 0.1 µM.

Q: Cn1nc(N2CCC(=O)NC2=O)c2ccc(C3CCN(CCCCc4cc5c(-c6ccc7c(c6)OCCCC7NC(=O)c6noc(C(C)(C)C)n6)ncnn5c4)CC3)cc21 (centres unmarked) [Example 290, 5-(tert-butyl)-N-(8-(6-(4-(4-(3-(2,4-dioxotetrahydropyrimidin-1(2H)-yl)-1-methyl-1H-indazol-6-yl)piperidin-1-yl)butyl)pyrrolo[2,1-f][1,2,4]triazin-4-yl)-2,3,4,5-tetrahydrobenzo[b]oxepin-5-yl)-1,2,4-oxadiazole-3-carboxamide] was tested. Which DC50 did it give?
A: Its DC50 is under 0.1 µM.

Q: For CC(C)(C)c1nc(C(=O)NCc2ccc(-c3ncnn4cc(-c5ccc(CN6CCC(c7ccc(NC8CCC(=O)NC8=O)cn7)CC6)cc5)cc34)cc2F)no1 (centres unmarked) [Example 45, 5-tert-butyl-N-[[4-[6-[4-[[4-[5-[(2,6-dioxo-3-piperidyl)amino]-2-pyridyl]-1-piperidyl]methyl]phenyl]pyrrolo[2,1-f][1,2,4]triazin-4-yl]-2-fluoro-phenyl]methyl]-1,2,4-oxadiazole-3-carboxamide], which DC50 is on record?
A: The DC50 was under 0.1 µM.

Q: For CN(CCOc1ccc(OC2CCC(=O)NC2=O)cc1)Cc1ccc(-c2cc3c(-c4ccc(CNC(=O)c5noc(C(C)(C)C)n5)c(F)c4)ncnn3c2)nc1 (centres unmarked) [Example 229, 5-(tert-butyl)-N-(4-(6-(5-(((2-(4-((2,6-dioxopiperidin-3-yl)oxy)phenoxy)ethyl)(methyl)amino)methyl)pyridin-2-yl)pyrrolo[2,1-f][1,2,4]triazin-4-yl)-2-fluorobenzyl)-1,2,4-oxadiazole-3-carboxamide], which DC50 is on record?
A: Its DC50 is under 0.1 µM.

Q: How did the DC50 turn out when Cc1cc(-c2ncnn3cc(N4CCN(C(=O)C5CC6(CCN(C(=O)c7ccc(OC8CCC(=O)NC8=O)cc7)C6)C5)CC4)cc23)ccc1CNC(=O)c1noc(C(C)(C)C)n1 (centres unmarked) [Example 178, 5-(tert-butyl)-N-(4-(6-(4-(6-(4-((2,6-dioxopiperidin-3-yl)oxy)benzoyl)-6-azaspiro[3.4]octane-2-carbonyl)piperazin-1-yl)pyrrolo[2,1-f][1,2,4]triazin-4-yl)-2-methylbenzyl)-1,2,4-oxadiazole-3-carboxamide] was run?
A: Its DC50 is under 0.1 µM.

Q: With Cn1nc(N2CCC(=O)NC2=O)c2ccc(C3CCN(Cc4ccc(-c5cc6c(-c7ccc(CNC(=O)c8noc(C(C)(C)C)n8)c(F)c7)ncnn6c5)nc4)CC3)cc21 [Example 243, 5-(tert-butyl)-N-(4-(6-(5-((4-(3-(2,4-dioxotetrahydropyrimidin-1(2H)-yl)-1-methyl-1H-indazol-6-yl)piperidin-1-yl)methyl)pyridin-2-yl)pyrrolo[2,1-f] [1,2,4]triazin-4-yl)-2-fluorobenzyl)-1,2,4-oxadiazole-3-carboxamide] as the compound, how does the DC50 read?
A: Its DC50 is under 0.1 µM.

Q: Cc1cc(-c2ccnc3sc(-c4ccc(CN5CCC(c6ccc(NC7CCC(=O)NC7=O)cc6)CC5)cc4)cc23)ccc1CNC(=O)c1noc(C(C)(C)C)n1 (centres unmarked) [Example 157, 5-tert-butyl-N-[[4-[2-[4-[[4-[4-[(2,6-dioxo-3-piperidyl)amino]phenyl]-1-piperidyl]methyl]phenyl]thieno[2,3-b]pyridin-4-yl]-2-methyl-phenyl]methyl]-1,2,4-oxadiazole-3-carboxamide] was tested. Which DC50 did it give?
A: Its DC50 is 0.1 to 0.5 µM.

Q: Which DC50 does the source give for CC(C)(C)c1nc(C(=O)NCc2ccc(-c3ncnn4cc(C#CC(F)(F)CN5CCC(c6ccc(C7CCC(=O)NC7=O)cc6)CC5)cc34)cc2F)no1 (centres unmarked) [Example 225, 5-tert-butyl-N-[[4-[6-[4-[4-[4-(2,6-dioxo-3-piperidyl)phenyl]-1-piperidyl]-3,3-difluoro-but-1-ynyl]pyrrolo[2,1-f][1,2,4]triazin-4-yl]-2-fluoro-phenyl]methyl]-1,2,4-oxadiazole-3-carboxamide] here?
A: The DC50 was over 1 µM.
